The kinase profiling compilation of Christmann-Franck et al. (2016)

Legend:
Test in all cases: KINOMEscan competition binding
Conditions in all cases: compound 10.0 µM
[1] = target: NEK6 (human) (UniProt Q9HC98)
[2] = target: PIK3C2G (human) (UniProt O75747)
[3] = target: SBK1 (human) (UniProt Q52WX2)
[4] = target: MET (human) (UniProt P08581)
[5] = target: NEK9 (human) (UniProt Q8TD19)
[6] = target: BMPR1B (human) (UniProt O00238)
[7] = target: PRKG1 (human) (UniProt Q13976)
[8] = target: PLK2 (human) (UniProt Q9NYY3)
[9] = target: FER (human) (UniProt P16591)
[10] = target: FGFR3 (human) (UniProt P22607)
[11] = target: PIM3 (human) (UniProt Q86V86)
[12] = target: GSK3A (human) (UniProt P49840)
[13] = target: INSRR (human) (UniProt P14616)
[14] = target: CSNK1E (human) (UniProt P49674)
[15] = target: TTK (human) (UniProt P33981)
[16] = tested on: PIK3CA (human), P42336 [M1043I]
[17] = target: EPHB6 (human) (UniProt O15197)
[18] = target: DYRK1A (human) (UniProt Q13627)
[19] = target: PAK3 (human) (UniProt O75914)
[20] = target: PAK6 (human) (UniProt Q9NQU5)
[21] = target: CDC42BPA (human) (UniProt Q5VT25)
[22] = target: EIF2AK2 (human) (UniProt P19525)
[23] = target: CAMK2D (human) (UniProt Q13557)
[24] = target: BMPR1A (human) (UniProt P36894)
Sequence of BMPR1A (human) (P36894 whole entry, looked up): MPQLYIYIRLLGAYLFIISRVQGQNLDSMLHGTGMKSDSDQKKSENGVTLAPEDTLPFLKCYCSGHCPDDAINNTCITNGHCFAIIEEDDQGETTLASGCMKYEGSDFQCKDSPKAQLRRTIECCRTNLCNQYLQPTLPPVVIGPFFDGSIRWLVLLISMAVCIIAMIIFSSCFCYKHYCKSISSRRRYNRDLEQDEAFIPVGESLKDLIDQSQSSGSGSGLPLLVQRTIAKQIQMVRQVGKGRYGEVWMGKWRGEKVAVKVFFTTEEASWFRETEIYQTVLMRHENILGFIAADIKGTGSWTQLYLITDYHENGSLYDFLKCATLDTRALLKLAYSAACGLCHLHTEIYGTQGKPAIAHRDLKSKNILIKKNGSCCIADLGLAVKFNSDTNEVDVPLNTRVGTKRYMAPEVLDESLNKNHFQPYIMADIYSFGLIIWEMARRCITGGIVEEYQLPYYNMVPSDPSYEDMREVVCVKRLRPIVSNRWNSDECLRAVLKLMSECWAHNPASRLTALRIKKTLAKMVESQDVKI

[25] = tested on: KIT (human), P10721 [V559D/T670I]
[26] = tested on: FLT3 (human), P36888 [K663Q]
[27] = target: BMP2K (human) (UniProt Q9NSY1)
[28] = target: MAPK4 (human) (UniProt P31152)
Sequence of MAPK4 (human) (P31152 whole entry, looked up): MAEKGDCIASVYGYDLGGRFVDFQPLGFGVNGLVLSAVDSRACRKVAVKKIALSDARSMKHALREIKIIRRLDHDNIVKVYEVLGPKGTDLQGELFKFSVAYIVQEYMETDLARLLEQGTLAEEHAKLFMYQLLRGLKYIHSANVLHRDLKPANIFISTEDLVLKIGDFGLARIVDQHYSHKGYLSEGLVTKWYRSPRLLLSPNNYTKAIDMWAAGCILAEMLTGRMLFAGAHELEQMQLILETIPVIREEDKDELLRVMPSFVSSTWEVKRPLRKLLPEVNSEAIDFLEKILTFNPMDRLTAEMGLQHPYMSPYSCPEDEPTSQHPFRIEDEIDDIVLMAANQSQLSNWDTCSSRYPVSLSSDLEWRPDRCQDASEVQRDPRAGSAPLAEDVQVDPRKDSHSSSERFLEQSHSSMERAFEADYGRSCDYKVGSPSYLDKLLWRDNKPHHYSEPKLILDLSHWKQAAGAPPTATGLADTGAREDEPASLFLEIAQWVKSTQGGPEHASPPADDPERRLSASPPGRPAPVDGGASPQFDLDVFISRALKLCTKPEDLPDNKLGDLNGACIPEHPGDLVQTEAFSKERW

[29] = target: BMX (human) (UniProt P51813)
[30] = target: NUAK1 (human) (UniProt O60285)
[31] = target: CDC42BPG (human) (UniProt Q6DT37)
Sequence of CDC42BPG (human) (Q6DT37 whole entry, looked up): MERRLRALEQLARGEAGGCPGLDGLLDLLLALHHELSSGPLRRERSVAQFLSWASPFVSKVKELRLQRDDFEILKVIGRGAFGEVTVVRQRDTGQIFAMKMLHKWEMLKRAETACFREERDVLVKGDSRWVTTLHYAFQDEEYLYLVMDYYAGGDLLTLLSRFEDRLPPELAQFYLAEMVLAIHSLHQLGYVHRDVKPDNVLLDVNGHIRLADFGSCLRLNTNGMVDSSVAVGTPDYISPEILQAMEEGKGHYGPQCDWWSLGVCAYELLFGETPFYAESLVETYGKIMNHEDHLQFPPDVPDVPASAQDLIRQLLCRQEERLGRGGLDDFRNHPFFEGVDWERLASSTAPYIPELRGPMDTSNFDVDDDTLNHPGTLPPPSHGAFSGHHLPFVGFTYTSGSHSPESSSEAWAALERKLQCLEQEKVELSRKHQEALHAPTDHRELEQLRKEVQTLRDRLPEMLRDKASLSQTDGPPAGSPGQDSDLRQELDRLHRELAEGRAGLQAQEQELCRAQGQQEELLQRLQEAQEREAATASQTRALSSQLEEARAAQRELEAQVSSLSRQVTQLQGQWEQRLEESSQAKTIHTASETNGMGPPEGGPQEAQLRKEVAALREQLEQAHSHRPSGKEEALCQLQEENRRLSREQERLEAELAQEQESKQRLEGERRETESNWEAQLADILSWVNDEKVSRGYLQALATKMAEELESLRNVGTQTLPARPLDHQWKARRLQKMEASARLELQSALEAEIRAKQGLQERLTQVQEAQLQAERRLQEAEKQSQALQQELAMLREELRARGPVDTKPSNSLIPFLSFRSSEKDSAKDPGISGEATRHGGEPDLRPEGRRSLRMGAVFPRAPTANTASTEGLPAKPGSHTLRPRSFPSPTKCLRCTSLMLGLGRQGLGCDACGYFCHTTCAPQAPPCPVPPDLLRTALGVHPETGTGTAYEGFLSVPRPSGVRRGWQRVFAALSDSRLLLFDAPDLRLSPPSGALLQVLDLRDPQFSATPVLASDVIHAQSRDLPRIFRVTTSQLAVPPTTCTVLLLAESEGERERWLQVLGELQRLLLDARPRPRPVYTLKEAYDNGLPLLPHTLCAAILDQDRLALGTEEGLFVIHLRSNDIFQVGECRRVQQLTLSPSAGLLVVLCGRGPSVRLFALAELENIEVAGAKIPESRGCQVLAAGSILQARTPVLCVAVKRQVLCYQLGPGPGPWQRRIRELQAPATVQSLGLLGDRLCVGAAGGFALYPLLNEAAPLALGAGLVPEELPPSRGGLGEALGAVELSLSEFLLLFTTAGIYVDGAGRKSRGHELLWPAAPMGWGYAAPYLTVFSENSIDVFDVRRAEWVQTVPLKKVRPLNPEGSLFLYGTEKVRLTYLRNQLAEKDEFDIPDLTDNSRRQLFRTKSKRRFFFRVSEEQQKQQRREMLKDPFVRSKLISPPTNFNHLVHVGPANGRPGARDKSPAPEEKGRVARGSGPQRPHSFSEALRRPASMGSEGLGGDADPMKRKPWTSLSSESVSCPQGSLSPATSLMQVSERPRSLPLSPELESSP

[32] = target: BRSK2 (human) (UniProt Q8IWQ3)
[33] = target: EPHA6 (human) (UniProt Q9UF33)
[34] = target: TEK (human) (UniProt Q02763)
[35] = target: EPHA5 (human) (UniProt P54756)
[36] = target: CDKL5 (human) (UniProt O76039)
Sequence of CDKL5 (human) (O76039 whole entry, looked up): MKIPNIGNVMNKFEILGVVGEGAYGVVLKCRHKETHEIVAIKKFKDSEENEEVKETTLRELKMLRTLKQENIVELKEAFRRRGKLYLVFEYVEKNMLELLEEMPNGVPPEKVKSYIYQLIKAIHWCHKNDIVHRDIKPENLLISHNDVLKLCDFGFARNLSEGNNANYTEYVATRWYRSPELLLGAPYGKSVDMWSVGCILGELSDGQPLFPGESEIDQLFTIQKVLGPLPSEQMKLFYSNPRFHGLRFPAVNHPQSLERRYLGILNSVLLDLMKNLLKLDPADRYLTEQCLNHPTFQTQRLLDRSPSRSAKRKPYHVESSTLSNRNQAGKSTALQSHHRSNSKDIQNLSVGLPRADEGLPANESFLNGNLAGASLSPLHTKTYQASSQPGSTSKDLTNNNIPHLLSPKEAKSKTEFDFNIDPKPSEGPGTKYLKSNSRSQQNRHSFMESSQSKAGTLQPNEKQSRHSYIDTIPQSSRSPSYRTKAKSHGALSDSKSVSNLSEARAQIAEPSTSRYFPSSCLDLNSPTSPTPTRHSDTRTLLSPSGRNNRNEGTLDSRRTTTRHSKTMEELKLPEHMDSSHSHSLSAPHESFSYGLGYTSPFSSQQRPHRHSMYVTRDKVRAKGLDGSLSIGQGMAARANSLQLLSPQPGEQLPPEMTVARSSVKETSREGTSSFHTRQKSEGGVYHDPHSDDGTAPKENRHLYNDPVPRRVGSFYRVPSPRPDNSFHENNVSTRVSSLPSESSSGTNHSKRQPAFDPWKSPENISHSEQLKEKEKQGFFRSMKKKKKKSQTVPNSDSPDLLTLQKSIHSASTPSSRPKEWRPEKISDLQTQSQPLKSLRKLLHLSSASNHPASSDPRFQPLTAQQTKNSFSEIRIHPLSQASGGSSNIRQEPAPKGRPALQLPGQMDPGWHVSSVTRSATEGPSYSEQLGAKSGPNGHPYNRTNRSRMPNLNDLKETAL

[37] = target: PTK6 (human) (UniProt Q13882)
[38] = target: NEK1 (human) (UniProt Q96PY6)
[39] = target: ACVR2A (human) (UniProt P27037)
[40] = target: RET (human) (UniProt P07949)
[41] = target: SRPK3 (human) (UniProt Q9UPE1)
[42] = target: CAMKK2 (human) (UniProt Q96RR4)

Sequence of MET (human) (P08581 whole entry, looked up): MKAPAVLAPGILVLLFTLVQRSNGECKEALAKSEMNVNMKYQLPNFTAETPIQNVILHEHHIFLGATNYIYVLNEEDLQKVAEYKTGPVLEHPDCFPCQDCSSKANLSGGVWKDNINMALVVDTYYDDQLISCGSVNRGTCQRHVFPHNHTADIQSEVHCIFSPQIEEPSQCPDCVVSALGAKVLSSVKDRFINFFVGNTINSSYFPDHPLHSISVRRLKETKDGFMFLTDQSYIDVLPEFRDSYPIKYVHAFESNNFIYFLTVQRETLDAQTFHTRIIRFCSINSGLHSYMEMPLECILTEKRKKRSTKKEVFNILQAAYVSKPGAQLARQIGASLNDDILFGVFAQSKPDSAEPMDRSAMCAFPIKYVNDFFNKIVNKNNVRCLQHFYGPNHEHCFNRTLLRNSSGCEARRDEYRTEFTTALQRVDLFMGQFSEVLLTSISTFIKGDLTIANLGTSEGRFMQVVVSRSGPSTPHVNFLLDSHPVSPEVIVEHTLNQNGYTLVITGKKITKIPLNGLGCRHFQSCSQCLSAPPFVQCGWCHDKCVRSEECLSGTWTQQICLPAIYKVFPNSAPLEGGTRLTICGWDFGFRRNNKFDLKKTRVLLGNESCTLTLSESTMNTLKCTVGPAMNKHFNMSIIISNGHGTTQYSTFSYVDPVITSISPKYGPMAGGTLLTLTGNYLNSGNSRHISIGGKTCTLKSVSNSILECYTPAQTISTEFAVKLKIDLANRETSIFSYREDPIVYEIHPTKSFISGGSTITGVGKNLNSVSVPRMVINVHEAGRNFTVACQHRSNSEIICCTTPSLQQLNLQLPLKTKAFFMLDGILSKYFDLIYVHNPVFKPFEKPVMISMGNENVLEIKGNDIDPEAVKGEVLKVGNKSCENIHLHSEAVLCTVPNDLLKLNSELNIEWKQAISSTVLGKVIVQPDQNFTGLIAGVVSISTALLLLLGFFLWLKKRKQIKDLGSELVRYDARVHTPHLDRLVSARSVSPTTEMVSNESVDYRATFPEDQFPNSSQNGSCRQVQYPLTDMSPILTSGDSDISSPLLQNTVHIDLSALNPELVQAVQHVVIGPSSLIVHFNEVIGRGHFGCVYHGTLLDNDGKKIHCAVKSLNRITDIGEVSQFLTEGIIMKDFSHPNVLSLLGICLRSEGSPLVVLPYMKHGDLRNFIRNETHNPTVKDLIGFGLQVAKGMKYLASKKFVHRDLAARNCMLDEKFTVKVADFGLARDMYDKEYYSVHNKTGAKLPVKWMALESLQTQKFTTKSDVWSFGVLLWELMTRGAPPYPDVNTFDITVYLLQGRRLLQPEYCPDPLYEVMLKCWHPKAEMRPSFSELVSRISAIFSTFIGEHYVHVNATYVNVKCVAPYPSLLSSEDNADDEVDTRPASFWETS

Compound: O=C1Nc2cc(Br)ccc2/C1=C1/Nc2ccccc2/C1=N\O
- kinase still bound, per cent of control [1]: 85%
- kinase still bound, per cent of control [2]: 100%
- kinase still bound, per cent of control [3]: 61%
- kinase still bound, per cent of control [4]: 86%
- kinase still bound, per cent of control [5]: 98%
- kinase still bound, per cent of control [6]: 50%
- kinase still bound, per cent of control [7]: 100%
- kinase still bound, per cent of control [8]: 87%
- kinase still bound, per cent of control [9]: 100%
- kinase still bound, per cent of control [10]: 12%
- kinase still bound, per cent of control [11]: 30%
- kinase still bound, per cent of control [12]: 0%
- kinase still bound, per cent of control [13]: 47%
- kinase still bound, per cent of control [14]: 18%
- kinase still bound, per cent of control [15]: 3.8%
- kinase still bound, per cent of control [16]: 100%
- kinase still bound, per cent of control [17]: 0.3%
- kinase still bound, per cent of control [18]: 59%
- kinase still bound, per cent of control [19]: 7.7%
- kinase still bound, per cent of control [20]: 24%
- kinase still bound, per cent of control [21]: 70%
- kinase still bound, per cent of control [22]: 33%
- kinase still bound, per cent of control [23]: 2.1%
- kinase still bound, per cent of control [24]: 66%
- kinase still bound, per cent of control [25]: 0%
- kinase still bound, per cent of control [26]: 0%
- kinase still bound, per cent of control [27]: 0.65%
- kinase still bound, per cent of control [28]: 100%
- kinase still bound, per cent of control [29]: 42%
- kinase still bound, per cent of control [30]: 12%
- kinase still bound, per cent of control [31]: 80%
- kinase still bound, per cent of control [32]: 1.1%
- kinase still bound, per cent of control [33]: 34%
- kinase still bound, per cent of control [34]: 78%
- kinase still bound, per cent of control [35]: 30%
- kinase still bound, per cent of control [36]: 7.4%
- kinase still bound, per cent of control [37]: 84%
- kinase still bound, per cent of control [38]: 70%
- kinase still bound, per cent of control [39]: 41%
- kinase still bound, per cent of control [40]: 0%
- kinase still bound, per cent of control [41]: 0.25%
- kinase still bound, per cent of control [42]: 37%

Compound: Cc1cnc(-c2cnc(NCCNc3ccc(C#N)cn3)nc2-c2ccc(Cl)cc2Cl)[nH]1
- kinase still bound, per cent of control [1]: 100%
- kinase still bound, per cent of control [2]: 100%
- kinase still bound, per cent of control [3]: 100%
- kinase still bound, per cent of control [4]: 96%
- kinase still bound, per cent of control [5]: 100%
- kinase still bound, per cent of control [6]: 92%
- kinase still bound, per cent of control [7]: 100%
- kinase still bound, per cent of control [8]: 79%
- kinase still bound, per cent of control [9]: 100%
- kinase still bound, per cent of control [10]: 100%
- kinase still bound, per cent of control [11]: 95%
- kinase still bound, per cent of control [12]: 0%
- kinase still bound, per cent of control [13]: 100%
- kinase still bound, per cent of control [14]: 76%
- kinase still bound, per cent of control [15]: 86%
- kinase still bound, per cent of control [16]: 100%
- kinase still bound, per cent of control [17]: 100%
- kinase still bound, per cent of control [18]: 100%
- kinase still bound, per cent of control [19]: 90%
- kinase still bound, per cent of control [20]: 100%
- kinase still bound, per cent of control [21]: 100%
- kinase still bound, per cent of control [22]: 50%
- kinase still bound, per cent of control [23]: 100%
- kinase still bound, per cent of control [24]: 100%
- kinase still bound, per cent of control [25]: 91%
- kinase still bound, per cent of control [26]: 78%
- kinase still bound, per cent of control [27]: 99%
- kinase still bound, per cent of control [28]: 100%
- kinase still bound, per cent of control [29]: 100%
- kinase still bound, per cent of control [30]: 100%
- kinase still bound, per cent of control [31]: 100%
- kinase still bound, per cent of control [32]: 97%
- kinase still bound, per cent of control [33]: 100%
- kinase still bound, per cent of control [34]: 100%
- kinase still bound, per cent of control [35]: 100%
- kinase still bound, per cent of control [36]: 100%
- kinase still bound, per cent of control [37]: 100%
- kinase still bound, per cent of control [38]: 79%
- kinase still bound, per cent of control [39]: 100%
- kinase still bound, per cent of control [40]: 100%
- kinase still bound, per cent of control [41]: 100%
- kinase still bound, per cent of control [42]: 100%
